Test results published in patent US20240261310A1, “APPLICATION OF ALGINATE OLIGOSACCHARIDES” (HAITANG (JIANGSU) BIOTECHNOLOGY COMPANY, LTD., priority 2021, published 2024).

System: mice with AKI induced by cisplatin
Assay: Mouse acute kidney injury induced by cisplatin
Format: in vivo
Text: Cisplatin-induced kidney injury is a classical and standard animal model that simulates the acute kidney injury induced by drugs that cause nephrotoxicity. With the mouse cisplatin model, we administered the alginate oligosaccharides with different uniform degrees of polymerization and a mixture thereof, and then compared with a blank group and a non-administrated model group to investigate the therapeutic effects of the individual alginate oligosaccharides with a uniform degree of polymerization.
30 male C57BL/J6 mice of 22-28 grams were selected. Before treatment, the 24-hour urine output was collected and measured without abnormalities. The mice to be modeled were randomly divided into the following groups: a control group, a model group, a model+low-dose administration group (AOS3 at 0.05 g/kg/day), a model+medium-dose administration group (AOS3 at 0.1 g/kg/day), and a model+high-dose administration group (AOS3 at 0.2 g/kg/day), with 6 mice in each group. The alginate trisaccharides was intragastrically administered, and the model group and the control group were all fed by gavage with the same volume of normal saline. Cisplatin was used to induce the drug toxin-associated acute kidney injury. During modeling, each model group was intraperitoneally injected with cisplatin at 20 mg/kg, and the control group was intraperitoneally injected with the same volume of normal saline. Immediately after modeling, the mice were put back into the mouse metabolic cages for observation, during which the weight, food intake, water intake and urine output of the mice were measured (see FIG. 37 for the results). The mice were sacrificed 72 hours later for sampling, and urine was collected. […] Then, the serum creatinine in the mice was determined by using the creatinine assay kit from Nanjing Jiancheng, with the results shown in FIG. 36. During sampling, the kidneys on both sides were isolated, the cortex and inner medulla of each kidney were isolated, and the cortex was stored in trizol. When in use, mRNAs in the cortex were extracted using the trizol method, and the mRNA expressions of AKI biomarkers (KIM-1 and NGAL, with the results shown in FIG. 38) were detected by the Qpcr method. A tissue lysis buffer was added to homogenize the kidneys by ultrasound, the total protein was then extracted, and the inflammatory factors (p-NFκB/NFκB and IL-1β) in the renal cortex tissues were detected by western blotting. The experimental data were statistically analyzed by one-way ANOVA.

[1] = 0.1 g/kg/day, vs cisplatin model group

Substance | expressions of inflammatory factors [1] | level of serum creatinine [1] | levels of kidney injury factors (KIM-1 and NGAL) [1] | level of serum creatinine (C57BL/J6 mice, cisplatin 20 mg/kg i.p., intragastric 0.05, 0.1, 0.2 g/kg/day, 72 h) | mRNA levels of Kim-1 and NGAL in kidney tissues (renal cortex, Qpcr, vs cisplatin model group) | protein expressions of renal inflammatory factors (TLR4, p-NFκB/NFκB, IL-1β) (renal cortex, western blotting, vs cisplatin model group) | urine output (three doses 0.05, 0.1, 0.2 g/kg/day, 24 h to 72 h, dose dependent)
alginate disaccharide sodium salt [AOS2] | decreased significantly | decreased significantly | decreased significantly | – | – | – | –
alginate tetrasaccharide sodium salt [AOS4] | decreased significantly | decreased significantly | decreased significantly | – | – | – | –
alginate trisaccharide sodium salt [AOS3] | decreased significantly | decreased significantly | decreased significantly | decreased significantly and could basically return to a normal level | significantly reduced | significantly reduced the production of the inflammatory factors | first somewhat decreased and then became normal
